For test [1], the target named is T1, Full-length (FL)-PRMT5-MEP50 enzyme complex (Homo sapiens, UniProt O14744).
T1 construct: Full-length (FL)-PRMT5-MEP50 enzyme complex (recombinant proteins from baculovirus-transfected Sf21 cells: FL-PRMT5; MW=73837 kDa and FL-MEP50; MW=38614); made in house; host or cells: baculovirus-transfected Sf21 cells
The test is described as follows: PRMT5-MEP50 Enzyme Methylation Assay (Version A). It is filed as biochemical. As to the method: PRMT5-MEP50 Enzyme Methylation Assay (Version A)
PRMT5-MEP50 biochemical assay is a direct measurement of the methylation activity of the enzyme complex on a short peptide substrate derived from the N-terminus of H4 histone. Methylation experiment was performed with recombinant PRMT5-MEP50 protein complex. The assessment of inhibitory effect of small molecules was measured by the effectiveness of the compounds to inhibit this reaction (EC50).
In this assay, the potency (EC50) of each compound was determined from a twenty-point (1:2 serial dilution; top compound concentration of 100000 nM) titration curve using the following outlined procedure. To each well of a white ProxiPlus 384 well-plate, 100 nL of compound (1% DMSO in final assay volume of 10 μL) was dispensed, followed by the addition of 8 μL of 1× assay buffer (50 mM Bicine pH 8.0, 1 mM DTT, 0.004% Tween20, 0.01% BSA) containing 1.25 nM of Full-length (FL)-PRMT5-MEP50 enzyme complex (recombinant proteins from baculovirus-transfected Sf21 cells: FL-PRMT5; MW=[…] and FL-MEP50; MW=38614) and 1 μL of 150 μM S-(5′-Adenosyl)-L-Methionine Chloride (SAM). A plate were sealed and placed in a 37° C. humidified chamber for a 60 minutes pre-incubation with compound. Subsequently, each reaction was initiated by the addition of 1 μL 1× assay buffer containing 750 nM biotinylated H4R3(Me1) peptide. The final reaction in each well of 10 μL consists of 1.0 nM PRMT5-MEP50, 75 nM biotinylated-peptide, and 15 μM SAM. Methylation reactions were allowed to proceed for 150 minutes in a sealed plate at 37° C. Reactions were immediately quenched by the addition of 1 μL of 5% formic acid. A plate was then frozen and shipped to SAMDI™ Tech Inc. to determine the percent conversion from H4R3(Me1) to H4R3(Me2). Dose-response curves were generated by plotting percent effect (% product conversion; Y-axis) vs. Log 10 compound concentrations (X-axis). EC50 values were determined by non-linear regression according to models for either sigmoidal (4 parameters) or biphasic (7 parameters) dose-response curves.

For test [2], the system named is symmetric dimethylation of arginine (SDMA) of PRMT5 substrates in MCF-7 cells. The test is described as follows: PRMT5 Cell Target Engagement (TE) Assay. The conditions noted are these: 3 days treatment, SDMA high content imaging. It is filed as cell-based. The text has this:
PRMT5 Cell Target Engagement (TE) Assay
The PRMT5 TE assay is a biomarker assay for identifying compounds that inhibit symmetric dimethylation of arginine (SDMA) of PRMT5 substrates. The following substrates have been reported for PRMT5: histone H2A and H4 R3, Histone H3 R2, Histone H3 R8, spliceosome Sm proteins, ribosomal protein RPS10, p53, FEN1, nucleoplasmin, nucleolin, EGFR and EBNA. The assay focuses on detecting symmetrically dimethylated nuclear proteins using high content imaging technology. Detection of the expression of symmetrically dimethylated nuclear proteins is through a mixture of primary rabbit monoclonal antibodies to SDMA (CST 13222), which in turn recognized by an Alexafluor 488 dye-conjugated anti-rabbit IgG secondary antibody. The IN Cell Analyzer 2200 or Opera-Phenix measures nuclear Alexafluor 488 fluorescent dye intensity that is directly related to the level of expression of symmetrically dimethylated nuclear proteins at the single cell level. Nuclear AF488 dye intensities are compared to the mean value for DMSO treated cells (MIN) to report percent of inhibition for each compound-treated well.
In this assay, the cell potency (EC50) of each compound was determined from a ten point (1:3 serial dilution; top compound concentration of 10000 nM) titration curve using the following outlined procedure. Each well of a BD falcon collagen coated black/clear bottom 384-well plate was seeded with 4000 MCF-7 cells in 30 μl media and allowed to attach for 5 h. Media is ATCC-formulated Eagle's Minimum Essential Medium, Catalog No. 30-2003. To make the complete growth medium, the following components were added to the base medium: 0.01 mg/mL human recombinant insulin; fetal bovine serum to a final concentration of 10%. Additional 30 μl of media containing 2× compounds were added to each well. Cells were treated for 3 days in 37° C. CO2 incubator. On day 3, cells were fixed with Cytofix, permeabilized with 0.4% Triton-X-100/Cytofix, and washed with D-PBS without Ca/Mg. Cells were blocked with Licor Odessey blocking reagent for 1 h at room temperature, followed by incubation with anti-SDMA (1:1000) antibody at 4° C. overnight. 1° antibody was removed, followed by three washings with DPBS without Ca/Mg and 0.05% Tween20. Hoechst (5 μg/mL), Cell Mask deep stain (1:2000) and Alexa488-conjugated goat anti-rabbit IgG (2 μg/mL) was added for 1 h at room temperature. A final washing step (three washes) was performed before sealing plate for imaging on In Cell Analyzer 2200 or Opera-Phenix. Images from analyzer were uploaded to Columbus (at WP or BOS) for image analysis. IC50 values were determined by 4 parameters robust fit of percent fluorescence units vs. (Log10) compound concentrations.

Where [3] appears, read: second value of 7 parameter biphasic fit, read-out: Enzyme Methylation Assay Version A (EC50 2).
[4] abbreviates: single EC50 = 4 parameter single site sigmoidal fit, EC50 1 = first value of 7 parameter biphasic fit, read-out: Enzyme Methylation Assay Version A (EC50 or EC50 1).

Read-outs that look alike come from different tables or passages of the source.

T1 sequence (O14744 whole entry): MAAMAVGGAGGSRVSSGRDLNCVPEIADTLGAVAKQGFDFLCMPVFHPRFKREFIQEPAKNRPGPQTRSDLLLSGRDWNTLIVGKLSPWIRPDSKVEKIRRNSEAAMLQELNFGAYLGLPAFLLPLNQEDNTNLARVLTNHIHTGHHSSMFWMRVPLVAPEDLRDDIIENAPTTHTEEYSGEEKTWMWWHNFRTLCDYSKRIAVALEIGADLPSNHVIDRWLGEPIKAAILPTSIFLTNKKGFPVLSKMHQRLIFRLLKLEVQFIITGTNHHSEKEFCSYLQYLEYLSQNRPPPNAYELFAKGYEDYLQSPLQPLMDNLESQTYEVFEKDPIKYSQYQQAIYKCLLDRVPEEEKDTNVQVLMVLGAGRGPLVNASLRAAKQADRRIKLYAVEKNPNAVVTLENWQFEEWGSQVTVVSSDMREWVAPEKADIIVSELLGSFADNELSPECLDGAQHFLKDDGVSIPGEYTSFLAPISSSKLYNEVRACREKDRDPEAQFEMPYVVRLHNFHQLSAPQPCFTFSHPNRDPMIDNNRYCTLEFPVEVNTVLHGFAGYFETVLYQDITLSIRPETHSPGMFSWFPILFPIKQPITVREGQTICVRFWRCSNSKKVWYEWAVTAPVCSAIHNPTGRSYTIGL
T1 sequence (Q9BQA1 whole entry partner): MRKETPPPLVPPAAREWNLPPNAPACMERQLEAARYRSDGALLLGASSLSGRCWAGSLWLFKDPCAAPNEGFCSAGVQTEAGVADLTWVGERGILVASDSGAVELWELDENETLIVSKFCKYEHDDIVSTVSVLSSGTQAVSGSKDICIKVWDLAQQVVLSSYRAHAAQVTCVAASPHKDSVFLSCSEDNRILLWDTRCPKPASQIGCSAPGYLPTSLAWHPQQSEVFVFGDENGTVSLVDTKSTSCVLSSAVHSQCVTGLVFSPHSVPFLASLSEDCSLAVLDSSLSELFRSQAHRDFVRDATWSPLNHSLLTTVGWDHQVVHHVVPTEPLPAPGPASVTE

The term EC50 denotes the concentration needed to bring the measured effect to its halfway point. In the case of `CN1CCC(Oc2nc(Br)cn3cc(C(=O)N4CC[C@]5(Cc6ccccc6CN5)[C@H](O)C4)nc23)C1=O` (single isomer, unassigned) [Example 95, (R or S)-3-((6-bromo-2-((3R,3′R)-3′-hydroxy-1,4-dihydro-2H-spiro[isoquinoline-3,4′-piperidine]-1′-carbonyl)imidazo[1,2-a]pyrazin-8-yl)oxy)-1-methylpyrrolidin-2-one], the values for the EC50 in test [1] (setting [3]), in test [1] (setting [4]) and in test [2] were 468 nM, 1.01 nM and 28.7 nM, respectively.
In the case of `O=C(c1cn2cc(Br)nc(OC3CCOC3)c2n1)N1CC[C@]2(Cc3ccccc3CN2)[C@H](O)C1` (single isomer, unassigned) [Example 98, (6-bromo-8-(((S or R)(tetrahydrofuran-3-yl)oxy)imidazo[1,2-a]pyrazin-2-yl)((3R,3′R)-3′-hydroxy-1,4-dihydro-2H-spiro[isoquinoline-3,4′-piperidin]-1′-yl)methanone], the EC50 was 104 nM in test [1] (setting [3]); 0.191 nM in test [1] (setting [4]); 6.86 nM in test [2] (Homo sapiens, MCF7, 72 h).
As for `O=C(c1cn2cc(Br)nc(OC3CCOC3)c2n1)N1CC[C@]2(Cc3ccccc3CN2)[C@H](O)C1` (single isomer, unassigned) [Example 99, (6-bromo-8-(((S or R)(tetrahydrofuran-3-yl)oxy)imidazo[1,2-a]pyrazin-2-yl)((3R,3′R)-3′-hydroxy-1,4-dihydro-2H-spiro[isoquinoline-3,4′-piperidin]-1′-yl)methanone], the values for the half-maximal effective concentration (EC50) in test [1] (setting [3]), in test [1] (setting [4]) and in test [2] were 147 nM, 0.427 nM and 7.8 nM, respectively.
As for `O=C(c1cn2cc(Br)nc(OCC3CCCO3)c2n1)N1CC[C@]2(Cc3ccccc3CN2)[C@H](O)C1` (single isomer, unassigned) [Example 100, (6-bromo-8-(((S or R)-tetrahydrofuran-2-yl)methoxy)imidazo[1,2-a]pyrazin-2-yl)((3R,3′R)-3′-hydroxy-1,4-dihydro-2H-spiro[isoquinoline-3,4′-piperidin]-1′-yl)methanone], the EC50 in test [1] (setting [3]) worked out at 60.6 nM; in test [1] (setting [4]), 0.266 nM; in test [2] (Homo sapiens, MCF7, 72 h), 4.13 nM.
Consider `O=C(c1cn2cc(Br)nc(OCC3CCCO3)c2n1)N1CC[C@]2(Cc3ccccc3CN2)[C@H](O)C1` (single isomer, unassigned) [Example 101, (6-bromo-8-(((S or R)-tetrahydrofuran-2-yl)methoxy)imidazo[1,2-a]pyrazin-2-yl)((3R,3′R)-3′-hydroxy-1,4-dihydro-2H-spiro[isoquinoline-3,4′-piperidin]-1′-yl)methanone], for which the EC50 was 56.2 nM in test [1] (setting [3]), 0.294 nM in test [1] (setting [4]) and 7.02 nM in test [2].
For `CC(n1ccc(C(=O)N2CC[C@]3(Cc4ccccc4CN3)[C@H](O)C2)cc1=O)C(F)(F)F` (single isomer, unassigned) [Example 102, 4-((3R,3′R)-3′-hydroxy-2,4-dihydro-1H-spiro[isoquinoline-3,4′-piperidin]-1′-ylcarbonyl)-1-((S or R)-1,1,1-trifluoropropan-2-yl)pyridin-2(1H)-one], in that order: 34700 nM, 52.1 nM and 800 nM.
`CC(n1ccc(C(=O)N2CC[C@]3(Cc4ccccc4CN3)[C@H](O)C2)cc1=O)C(F)(F)F` (single isomer, unassigned) [Example 103, 4-((3R,3′R)-3′-hydroxy-2,4-dihydro-1H-spiro[isoquinoline-3,4′-piperidin]-1′-ylcarbonyl)-1-((R or S)1,1,1-trifluoropropan-2-yl)pyridin-2(1H)-one]: the EC50 was 80000 nM in test [1] (setting [3]), 171 nM in test [1] (setting [4]) and 2860 nM in test [2].
In the case of `CCC1Oc2ccc(C(=O)N3CC[C@]4(Cc5ccccc5CN4)[C@H](O)C3)cc2NC1=O` (single isomer, unassigned) [Example 104, (2R or 2S)-2-ethyl-6-((3R,3′R)-3′-hydroxy-1,4-dihydro-2H-spiro[isoquinoline-3,4′-piperidine]-1′-carbonyl)-2H-benzo[b][1,4]oxazin-3(4H)-one], the EC50 in test [1] (setting [3]) is 1410 nM; in test [1] (setting [4]), 1.44 nM; in test [2], 83.1 nM.
For the molecule `CCC1Oc2ccc(C(=O)N3CC[C@]4(Cc5ccccc5CN4)[C@H](O)C3)cc2NC1=O` (single isomer, unassigned) [Example 105, (2S or 2R)-2-ethyl-6-((3R,3′R)-3′-hydroxy-1,4-dihydro-2H-spiro[isoquinoline-3,4′-piperidine]-1′-carbonyl)-2H-benzo[b][1,4]oxazin-3(4H)-one], the 50% effective concentration (EC50) is 146 nM in test [1] (setting [3]), 0.519 nM in test [1] (setting [4]) and 4.39 nM in test [2].
In the case of `O=C1Nc2cc(C(=O)N3CC[C@]4(Cc5ccccc5CN4)[C@H](O)C3)ccc2OC1C1CC1` (single isomer, unassigned) [Example 106, (2R or 2S)-2-cyclopropyl-6-((3R,3′R)-3′-hydroxy-1,4-dihydro-2H-spiro[isoquinoline-3,4′-piperidine]-1′-carbonyl)-2H-benzo[b][1,4]oxazin-3(4H)-one], the figures for the EC50 in test [1] (setting [3]), in test [1] (setting [4]) and in test [2] were 1010 nM, 0.43 nM and 36.8 nM, respectively.
Regarding `O=C1Nc2cc(C(=O)N3CC[C@]4(Cc5ccccc5CN4)[C@H](O)C3)ccc2OC1C1CC1` (single isomer, unassigned) [Example 107, (2S or 2R)-2-cyclopropyl-6-((3R,3′R)-3′-hydroxy-1,4-dihydro-2H-spiro[isoquinoline-3,4′-piperidine]-1′-carbonyl)-2H-benzo[b][1,4]oxazin-3(4H)-one], the EC50 in test [1] (setting [4]) came to 0.272 nM; in test [2], 6.67 nM.
In the case of `CC(O)c1cc(C(F)(F)F)cn2cc(C(=O)N3CC[C@]4(Cc5ccccc5CN4)[C@H](O)C3)nc12` (single isomer, unassigned) [Example 108], the EC50 is 207 nM in test [1] (setting [3]); 4.25 nM in test [1] (setting [4]); 12.9 nM in test [2] (Homo sapiens, MCF7, 72 h).
For `CC(O)c1cc(C(F)(F)F)cn2cc(C(=O)N3CC[C@]4(Cc5ccccc5CN4)[C@H](O)C3)nc12` (single isomer, unassigned) [Example 109], the EC50 in test [1] (setting [3]) was determined as 126 nM; in test [1] (setting [4]) it was 0.276 nM; in test [2], 8.28 nM.
Take `COC(C)c1cc(C)c2nc(C(=O)N3CC[C@]4(Cc5ccccc5CN4)[C@H](O)C3)cn2c1` (single isomer, unassigned) [Example 122]: the EC50 turned out to be 144 nM in test [1] (setting [3]), 0.304 nM in test [1] (setting [4]) and 5.56 nM in test [2].

Values taken from patent US12441730B2, “PRMT5 inhibitors” (Merck Sharp & Dohme LLC, priority 2019, dated 2025).
